Where two headings read alike, the source gives them in different places.
Key:
[1] = biological target: Photinus pyralis (firefly) luciferase (Photinus pyralis, UniProt P08659); assay: biochemical; assay type: biochemical
[2] = biological target: T1, human CYP1A2 (Homo sapiens, UniProt P05177)
T1 sequence (P05177 1-516): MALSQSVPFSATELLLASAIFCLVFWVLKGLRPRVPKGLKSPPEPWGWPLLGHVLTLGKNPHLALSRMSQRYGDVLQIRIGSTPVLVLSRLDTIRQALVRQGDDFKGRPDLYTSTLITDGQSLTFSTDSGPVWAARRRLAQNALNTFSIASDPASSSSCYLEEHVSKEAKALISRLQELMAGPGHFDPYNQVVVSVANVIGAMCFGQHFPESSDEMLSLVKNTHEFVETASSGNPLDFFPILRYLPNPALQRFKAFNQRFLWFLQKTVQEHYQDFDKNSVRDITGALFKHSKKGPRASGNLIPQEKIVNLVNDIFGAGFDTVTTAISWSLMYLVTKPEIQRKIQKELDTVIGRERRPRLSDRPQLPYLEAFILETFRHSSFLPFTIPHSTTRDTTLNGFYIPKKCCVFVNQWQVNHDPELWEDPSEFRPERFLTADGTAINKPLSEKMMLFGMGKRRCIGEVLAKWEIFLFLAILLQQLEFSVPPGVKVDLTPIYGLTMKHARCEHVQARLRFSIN

[3] = biological target: T2, human CYP2C9 (Homo sapiens, UniProt P11712)
[4] = biological target: T3, human CYP2C19 (Homo sapiens, UniProt P33261)
[5] = biological target: human CYP2D6 (Homo sapiens, UniProt P10635)
[6] = biological target: CYP3A4 (Homo sapiens, UniProt P08684)
[7] = biological target: T1, human CYP1A2; assay: biochemical
[8] = biological target: T2, human CYP2C9; assay: biochemical
[9] = biological target: T3, human CYP2C19; assay: biochemical
[10] = CYP2C9 IC50 (half-maximal inhibitory concentration)
[11] = CYP2C19 IC50 (half-maximal inhibitory concentration)

T3 sequence (P33261 whole entry): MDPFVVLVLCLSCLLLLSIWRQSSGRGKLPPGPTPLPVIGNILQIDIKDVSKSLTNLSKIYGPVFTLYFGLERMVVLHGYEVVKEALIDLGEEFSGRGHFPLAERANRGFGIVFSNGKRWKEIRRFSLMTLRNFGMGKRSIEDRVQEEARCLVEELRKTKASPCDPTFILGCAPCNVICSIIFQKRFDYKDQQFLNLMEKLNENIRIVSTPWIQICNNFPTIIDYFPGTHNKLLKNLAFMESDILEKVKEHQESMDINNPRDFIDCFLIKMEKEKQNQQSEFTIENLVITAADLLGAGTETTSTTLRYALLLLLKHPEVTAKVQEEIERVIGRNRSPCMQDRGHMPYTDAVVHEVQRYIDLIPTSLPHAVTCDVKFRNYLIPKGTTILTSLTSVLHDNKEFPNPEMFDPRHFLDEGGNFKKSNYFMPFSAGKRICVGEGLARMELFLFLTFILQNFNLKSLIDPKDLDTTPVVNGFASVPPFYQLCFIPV
CYP3A4, sequence (P08684 whole entry): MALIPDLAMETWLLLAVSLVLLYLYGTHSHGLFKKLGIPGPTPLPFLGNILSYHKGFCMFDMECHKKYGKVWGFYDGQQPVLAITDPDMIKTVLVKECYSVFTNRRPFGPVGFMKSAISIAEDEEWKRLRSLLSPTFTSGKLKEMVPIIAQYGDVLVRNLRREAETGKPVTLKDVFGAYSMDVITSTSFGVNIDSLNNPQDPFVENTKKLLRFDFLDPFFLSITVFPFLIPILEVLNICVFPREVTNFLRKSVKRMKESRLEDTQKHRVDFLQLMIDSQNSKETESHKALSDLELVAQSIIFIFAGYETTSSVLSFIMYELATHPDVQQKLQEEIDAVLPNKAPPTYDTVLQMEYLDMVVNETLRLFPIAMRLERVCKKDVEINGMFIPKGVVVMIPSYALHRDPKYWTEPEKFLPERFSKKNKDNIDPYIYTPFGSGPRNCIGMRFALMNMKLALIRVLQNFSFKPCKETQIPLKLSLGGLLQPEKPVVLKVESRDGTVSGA
human CYP2D6, sequence (P10635 whole entry): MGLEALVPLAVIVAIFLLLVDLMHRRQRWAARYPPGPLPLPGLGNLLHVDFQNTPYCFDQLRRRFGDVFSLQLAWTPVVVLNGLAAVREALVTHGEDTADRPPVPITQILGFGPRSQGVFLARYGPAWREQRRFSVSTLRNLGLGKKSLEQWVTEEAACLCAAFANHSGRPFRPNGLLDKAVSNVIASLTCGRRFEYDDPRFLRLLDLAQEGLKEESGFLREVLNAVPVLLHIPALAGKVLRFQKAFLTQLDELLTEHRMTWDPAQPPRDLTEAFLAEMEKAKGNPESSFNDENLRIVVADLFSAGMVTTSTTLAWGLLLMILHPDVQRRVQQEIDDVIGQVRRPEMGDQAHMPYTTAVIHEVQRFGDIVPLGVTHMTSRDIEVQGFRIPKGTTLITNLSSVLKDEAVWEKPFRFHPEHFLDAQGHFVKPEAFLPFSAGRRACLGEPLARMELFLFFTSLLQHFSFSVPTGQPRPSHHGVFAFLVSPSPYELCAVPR
Photinus pyralis (firefly) luciferase, sequence (P08659 whole entry): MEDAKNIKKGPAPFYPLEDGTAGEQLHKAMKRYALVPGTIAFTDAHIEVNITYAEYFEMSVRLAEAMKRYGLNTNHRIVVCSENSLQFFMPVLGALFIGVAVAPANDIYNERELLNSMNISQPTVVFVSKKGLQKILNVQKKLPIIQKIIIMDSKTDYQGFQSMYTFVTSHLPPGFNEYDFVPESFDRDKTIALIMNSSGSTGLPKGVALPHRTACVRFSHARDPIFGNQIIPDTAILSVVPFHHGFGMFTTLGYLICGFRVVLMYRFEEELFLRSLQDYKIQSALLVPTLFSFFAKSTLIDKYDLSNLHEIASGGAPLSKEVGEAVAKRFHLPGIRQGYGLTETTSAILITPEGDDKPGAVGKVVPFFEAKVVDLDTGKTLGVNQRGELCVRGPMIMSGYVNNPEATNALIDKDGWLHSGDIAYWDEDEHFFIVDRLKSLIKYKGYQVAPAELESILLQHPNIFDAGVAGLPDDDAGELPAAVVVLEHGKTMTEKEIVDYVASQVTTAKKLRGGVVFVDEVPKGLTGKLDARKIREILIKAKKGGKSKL
T2 sequence (P11712 whole entry): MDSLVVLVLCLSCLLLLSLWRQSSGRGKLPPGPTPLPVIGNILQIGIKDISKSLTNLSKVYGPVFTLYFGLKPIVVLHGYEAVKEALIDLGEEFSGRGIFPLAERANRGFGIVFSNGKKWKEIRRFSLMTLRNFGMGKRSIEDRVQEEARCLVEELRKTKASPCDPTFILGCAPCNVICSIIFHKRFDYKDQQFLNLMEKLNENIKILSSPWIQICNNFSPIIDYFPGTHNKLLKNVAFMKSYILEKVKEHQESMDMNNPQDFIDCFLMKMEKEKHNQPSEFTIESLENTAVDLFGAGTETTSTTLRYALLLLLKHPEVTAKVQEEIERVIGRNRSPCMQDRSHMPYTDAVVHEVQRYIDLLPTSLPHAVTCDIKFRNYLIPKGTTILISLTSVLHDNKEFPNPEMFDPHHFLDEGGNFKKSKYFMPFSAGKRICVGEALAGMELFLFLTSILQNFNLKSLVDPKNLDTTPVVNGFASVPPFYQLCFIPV

SMILES | Luciferase IC50 (half-maximal inhibitory concentration) [1] | IC50 [2] [µM] | IC50 [3] [µM] | IC50 [4] [µM] | IC50 [5] [µM] | IC50 [6] [µM] | further results
COC(=O)C1=C(C)NC(C)=C(C(=O)O[C@@H]2CCCN(Cc3ccccc3)C2)[C@@H]1c1cccc([N+](=O)[O-])c1.Cl (racemic) [rac Benidipine hydrochloride] | Inactive | 25.2 | 0.75 | 6.53 | 13.6 | 0.84 | –
Clc1ccc2c(c1)Nc1ccccc1S2 [2-Chlorophenothiazine] | Inactive | 0.44 | – | 7.85 | – | – | CYP2C9 Efficacy [3]: 11.4 ± 3.88 (-60 ± 10) %; CYP2D6 IC50 (half-maximal inhibitory concentration) [5]: Inactive; CYP3A4 IC50 (half-maximal inhibitory concentration) [6]: Inactive
CSc1ccc(C(=O)C(C)(C)N2CCOCC2)cc1 | Inactive | 40.1 | 23.2 | – | 2.53 | 3.18 | CYP2C19 Efficacy [4]: 0.94 ± 0.32 (-142 ± 3) %
CC(=C(CCOC(=O)C(C)C)SSC(CCOC(=O)C(C)C)=C(C)N(C=O)Cc1cnc(C)nc1N)N(C=O)Cc1cnc(C)nc1N (stereo in doubt) [Bisibutiamine] | Inactive | – | – | – | – | 0.36 | CYP1A2 IC50 (half-maximal inhibitory concentration) [2]: Inactive; CYP2C9 IC50 (half-maximal inhibitory concentration) [3]: Inactive; CYP2C19 IC50 (half-maximal inhibitory concentration) [4]: Inactive; CYP2D6 IC50 (half-maximal inhibitory concentration) [5]: Inactive
CCc1ccc(C(=O)C(C)CN2CCCCC2)cc1.Cl (stereo not drawn) [Eperisone hydrochloride] | Inactive | 29.2 | – | 4.72 | 0.51 | – | CYP2C9 IC50 (half-maximal inhibitory concentration) [3]: Inactive; CYP3A4 IC50 (half-maximal inhibitory concentration) [6]: Inactive
C=CCc1cc(S(=O)(=O)c2ccc(O)c(CC=C)c2)ccc1O | Inactive | 73.9 | 0.4 | 3.47 | 6.26 | 20 | CYP1A2 Efficacy (in parenthesis) [2]: 73.87 ± 5 (-42 ± 2) %; CYP2C9 Efficacy (in parenthesis) [3]: 0.4 ± 0.13 (-67 ± 11) %; CYP2C19 Efficacy (in parenthesis) [4]: 3.47 ± 1.89 (-136 ± 7) %; CYP2D6 Efficacy (in parenthesis) [5]: 6.26 ± 1.74 (-110 ± 9) %; CYP3A4 Efficacy (in parenthesis) [6]: 20.01 ± 7.14 (-71 ± 11) %
[Cl][Hg][Cl] [Mercuric chloride] | – | 5.66 | 0.47 | 0.77 | 1.61 | 2.25 | IC50 ([1]; read-out: Luciferase IC50): 11 µM
Cc1cc(N=Nc2ccccc2C)ccc1N [2-Amino-5-azotoluene] | – | 0.99 | – | 6.21 | 45.4 | 2.53 | IC50 ([1]; read-out: Luciferase IC50): 5.66 µM; CYP2C9 Efficacy [3]: 5.45 ± 1.48 (-102 ± 10) %
c1cc(CCCc2ccncc2)ccn1 [4,4'-Propane-1,3-diyldipyridine] | – | 1.54 | 5.05 | 1.5 | 1.54 | 0.87 | Luciferase IC50 [1]: Inactive
C[C@@H]1C[C@H]2[C@@H]3CCC4=CC(=O)C=C[C@]4(C)[C@@]3(F)[C@@H](O)C[C@]2(C)[C@@]1(O)C(=O)COC(=O)c1ccncc1 [Dexamethasone isonicotinate] | Inactive | – | 7.32 | 23.4 | 9.5 | 0.81 | CYP1A2 IC50 (half-maximal inhibitory concentration) [2]: Inactive
Cc1[nH]cnc1C[C@H]1CCc2c(C)c3ccccc3n2C1=O.Cl [Fabesetron hydrochloride] | Inactive | 1.56 | – | 1.67 | – | 1.89 | CYP2C9 Efficacy [3]: 0.51 ± 0.09 (-90 ± 4) %; CYP2D6 Efficacy [5]: 3.52 ± 0.74 (-103 ± 4) %
Cn1ccc2cc3c(cc21)CCN3C(=O)Nc1cccnc1 [SB-206553] | – | 0.07 | – | – | – | 3.55 | Luciferase Efficacy (in parenthesis) [1]: 4.77 ± 1.70 (-73 ± 12) %; IC50 ([1]; read-out: Luciferase IC50 (half-maximal inhibitory concentration)): 4.77 µM; CYP1A2 Efficacy (in parenthesis) [2]: 0.07 ± 0.01 (-96 ± 6) %; CYP2C9 IC50 (half-maximal inhibitory concentration) [3]: Inactive; CYP2C19 IC50 (half-maximal inhibitory concentration) [4]: Inactive; CYP2D6 IC50 (half-maximal inhibitory concentration) [5]: Inactive; CYP3A4 Efficacy (in parenthesis) [6]: 3.55 ± 0.64 (-82 ± 5) %
CC[C@]12CCCN3CCc4c(n(c5ccccc45)C(=O)C1)[C@@H]32 [(-)-Eburnamonine] | Inactive | 24.1 | 20.1 | 6.17 | – | 4.38 | –
C=CCOC(=O)c1ccc(C(=O)OCC=C)c(C(=O)OCC=C)c1 [Triallyl trimellitate] | Inactive | 5.66 | 0.33 | 0.15 | 46.2 | 1.5 | –
C=CCOC(Cn1ccnc1)c1ccc(Cl)cc1Cl.O=S(=O)(O)O (stereo not drawn) [Imazalil sulfate] | Inactive | – | 0.63 | 0.22 | 5.1 | 0.12 | CYP2C9 Efficacy (in parenthesis) [3]: 0.63 ± 0.18 (-107 ± 5) %; CYP2C19 Efficacy (in parenthesis) [4]: 0.22 ± 0.08 (-143 ± 13) %; CYP2D6 Efficacy (in parenthesis) [5]: 5.1 ± 0.35 (-106 ± 4) %; CYP3A4 Efficacy (in parenthesis) [6]: 0.12 ± 0.02 (-91 ± 3) %
O=c1c(-c2ccc(O)cc2)coc2cc(O)ccc12 [Daidzein] | – | – | – | – | – | – | IC50 [1]: 19.6 µM; CYP2D6 IC50 (half-maximal inhibitory concentration) [5]: Inactive; IC50 ([7]; CYP1A2 IC50 (half-maximal inhibitory concentration)): 28.3 µM; IC50 [8, 10]: 0.36 µM; IC50 [9, 11]: 36.4 µM
ClC1=C(Cl)C2(Cl)C3C4CC(C5OC45)C3C1(Cl)C2(Cl)Cl (stereo not drawn) [Endrin] | – | – | – | – | – | – | Luciferase IC50 [1]: Inactive; CYP2D6 IC50 [5]: Inactive; IC50 ([7]; CYP1A2 IC50): 54 µM; IC50 ([8]; CYP2C9 IC50): 12.4 µM; IC50 ([9]; CYP2C19 IC50): 26.6 µM
CCN(CC)C(=O)/C(C#N)=C/c1cc(O)c(O)c([N+](=O)[O-])c1 [Entacapone] | Inactive | – | – | – | – | – | CYP1A2 IC50 (half-maximal inhibitory concentration) [2]: Inactive; CYP2C19 IC50 (half-maximal inhibitory concentration) [4]: Inactive; CYP2D6 IC50 (half-maximal inhibitory concentration) [5]: Inactive; CYP3A4 IC50 (half-maximal inhibitory concentration) [6]: Inactive; IC50 [8, 10]: 0.2 µM
CN(C)CCN(Cc1ccc(Cl)cc1)c1ccccn1.Cl [Chloropyramine hydrochloride] | – | – | – | – | – | – | Luciferase IC50 [1]: Inactive; CYP1A2 Efficacy [2]: 20.13 ± 6.48 (-40 ± 3) %; CYP2C19 Efficacy [4]: 7.51 ± 1.03 (-122 ± 9) %; CYP2D6 Efficacy [5]: 0.23 ± 0.05 (-101 ± 4) %; CYP3A4 IC50 [6]: Inactive
CCOP(=S)(OCC)Oc1cc(C)nc(C(C)C)n1 [Diazinon] | – | – | – | – | – | – | Luciferase IC50 [1]: Inactive; CYP2D6 IC50 [5]: Inactive; IC50 ([7]; CYP1A2 IC50): 7.13 µM; IC50 ([8]; CYP2C9 IC50): 1.99 µM; IC50 ([9]; CYP2C19 IC50): 0.44 µM
NS(=O)(=O)C(F)(F)C(F)(F)C(F)(F)C(F)(F)C(F)(F)C(F)(F)C(F)(F)C(F)(F)F [PFOSA] | Inactive | – | – | – | – | – | CYP1A2 IC50 (half-maximal inhibitory concentration) [2]: Inactive; CYP2D6 IC50 (half-maximal inhibitory concentration) [5]: Inactive; CYP3A4 IC50 (half-maximal inhibitory concentration) [6]: Inactive; IC50 [8, 10]: 0.71 µM; IC50 [9, 11]: 64.3 µM

From publication PMC12155096 (International Journal of Molecular Sciences, 2025)
